From ChEMBL document CHEMBL3272051, “Some 9-hydroxycannabinoid-like compounds. Synthesis and evaluation of analgesic and behavioral properties” (J Med Chem, 1979)
Active and inactive are the calls of the source. No cut-off for these calls is given here.

What was measured:
Canis familiaris [1] = experiment: Effect on overt behavior in dog assessed as static ataxia at 0.05 to 10 mg/kg, iv; type: ADME, organism-based, Canis lupus familiaris; design: dose 0.05-10 mg/kg, route intravenous; settings: in vivo
Mus musculus [2] = experiment: Analgesic activity in sc dosed mouse by hot plate test; type: functional
Canis familiaris [3] = experiment: Effect on overt behavior in dog assessed as prostration at 4 to 10 mg/kg, iv; type: organism-based, Canis lupus familiaris; design: dose 4-10 mg/kg, route intravenous; settings: in vivo
Mus musculus [4] = experiment: Analgesic activity in mouse at 10 mg/kg, sc by tail-flick test; type: functional, organism-based; design: dose 10 mg/kg
Canis familiaris [5] = experiment: Effect on overt behavior in dog assessed as depression at 0.05 to 10 mg/kg, iv; type: organism-based, Canis lupus familiaris; design: dose 0.05-10 mg/kg, route intravenous; settings: in vivo
Canis familiaris [6] = experiment: Effect on overt behavior in dog assessed as hyperreflexia at 0.05 to 10 mg/kg, iv; type: organism-based, Canis lupus familiaris; design: dose 0.05-10 mg/kg, route intravenous; settings: in vivo
Mus musculus [7] = species on record: Mus musculus; experiment: animal or person; type: functional; settings: Tail, sc
Mus musculus [8] = species on record: Mus musculus; experiment: Analgesic activity in mouse assessed as inhibition of p-phenylquinone-induced writhing relative to morphine; type: functional
Mus musculus [9] = species on record: Mus musculus; experiment: Analgesic activity in mouse by tail-flick test relative to morphine; type: functional
Mus musculus [10] = experiment: Analgesic activity in mouse at 20 mg/kg, sc by hot plate test; type: functional, organism-based; design: dose 20 mg/kg
Mus musculus [11] = experiment: Analgesic activity in mouse at 50 mg/kg, sc by hot plate test; type: functional, organism-based; design: dose 50 mg/kg

With CCCCCc1cc(O)c2c(c1)OC(C)(C)c1ccc(O)cc1-2 the Activity (Canis familiaris [1]) was “Non-toxic”, the ED50 (Mus musculus [2]) was 35.6 mg/kg and the Activity (Canis familiaris [3]) was “Toxic”. The Activity (Mus musculus [4]) was “inactive”, the Activity (Canis familiaris [5]) was “Toxic” and the Activity (Canis familiaris [6]) was “Non-toxic”.

In the case of CCCCCc1cc(O)c2c(c1)OC(C)(C)[C@H]1CC[C@H](O)C[C@H]21, the Activity (Canis familiaris [3]) is reported as “Toxic”.

For CCCCCc1cc(O)c2c(c1)OC(C)(C)[C@@H]1CC[C@H](O)C[C@@H]21, the Activity (Canis familiaris [3]) was “Toxic”.

CCCCCc1cc(O)c2c(c1)OC(C)(C)[C@@H]1CC[C@@H](O)C[C@@H]21 was tested, and the ED50 (Mus musculus [7]) was 1 mg/kg, the ED50 (Mus musculus [2]) was 1.6 mg/kg and the “fold change (FC)” value (Mus musculus [8]) was 20. The Activity (Canis familiaris [3]) was “Toxic” and the “fold change (FC)” value (Mus musculus [9]) was 5.

In the case of CCCCCc1cc(O)c2c3c(c(=O)oc2c1)CCC(O)C3 (racemic), the Activity (Canis familiaris [1]) is reported as “Non-toxic”, the Activity (Mus musculus [10]) is reported as “inactive” and the Activity (Canis familiaris [3]) is reported as “Toxic”. For the same compound, the Activity (Canis familiaris [5]) was “Toxic” and the Activity (Canis familiaris [6]) was “Non-toxic”.

With CCCCCc1cc(O)c2c(c1)OC(C)(C)C1CCC(O)CC21 (racemic) the ED50 (Mus musculus [2]) was 2.9 mg/kg and the Activity (Canis familiaris [3]) was “Toxic”.

In the case of CCCCCc1cc(O)c2c(c1)OC(C)(C)C1=C2CC(O)CC1 (racemic), the Activity (Mus musculus [11]) is reported as “inactive”, the Activity (Canis familiaris [1]) is reported as “Toxic” and the Activity (Canis familiaris [3]) is reported as “Toxic”. The Activity (Canis familiaris [6]) was “Toxic”.

For CCCCCc1cc(O)c2c(c1)OC(C)(C)[C@@H]1CC[C@@H](O)C=C21 (racemic), the Activity (Mus musculus [11]) was “inactive”, the Activity (Canis familiaris [1]) was “Toxic” and the Activity (Canis familiaris [3]) was “Toxic”. The Activity (Canis familiaris [6]) was “Toxic”.

In the case of CCCCCc1cc(O)c2c(c1)OC(C)(C)[C@@H]1CCC(C)=C[C@@H]21 [DRONABINOL], the Activity (Canis familiaris [3]) is reported as “Toxic”.

Compound CN1CC[C@]23c4c5ccc(O)c4O[C@H]2[C@@H](O)C=C[C@H]3[C@H]1C5.Cl [MORPHINE HYDROCHLORIDE] has an ED50 (Mus musculus [2]) of 1.2 mg/kg.
